Laboratory results reported in paper PMC12006963, “Application of Deuterium in an M1 Positive Allosteric Modulator Back-Up Program: The Discovery of VU6045422” (ACS Chemical Neuroscience, 2025).
“Also recorded” adds a separate entry of the source.

Legend:
Bradykinin B1 = Bradykinin B1 (Homo sapiens, UniProt P46663); assay: Eurofins radioligand binding
[1] = tested on: bacterial mutagenicity (4-strain with and without S9); assay: Bacterial mutagenicity mini-AMES assay; assay type: cell-based
CYP 2D6 = CYP 2D6 (Homo sapiens, UniProt P10635); assay: CYP isoform contribution to metabolism: 2D6; assay type: in vitro ADME
Histamine H3 = Histamine H3 (Homo sapiens, UniProt Q9Y5N1); assay: Eurofins radioligand binding
[2] = molecular target: Leukotriene, Cysteinyl CysLT1 (Homo sapiens, UniProt Q9Y271); assay: Eurofins radioligand binding
Transporter, GABA = Transporter, GABA (Rattus norvegicus, UniProt P23978); assay: Eurofins radioligand binding
Melatonin MT1 = Melatonin MT1 (Homo sapiens, UniProt P48039); assay: Eurofins radioligand binding
[3] = tested on: fEPSPs in layer V medial prefrontal cortex (mPFC); assay: Slice electrophysiology, long-term depression of fEPSPs; set-up: species or system mouse; details: 10 μM; layer V recording, stimulation in layer II/III; n = 9
Description: While ago-PAMs induce substantial long-term depression that correlates with a lack of robust procognitive efficacy,[14],[16]−[21] […] Thus, PAM 5 maintains activity dependence of PFC function (Figure 3), and it is expected to display robust precognitive efficacy.
(A) Normalized time course of the fEPSP slope during baseline, application of 10 μM VU6045422 and washout. (B) Bar graph summarizing the averaged fEPSP slope during the last 5 min of washout (gray bar in panel (A)) compared to the baseline period (ns, p > 0.05, two-tailed paired t test, n = 9).

Tachykinin NK1 = Tachykinin NK1 (Homo sapiens, UniProt P25103); assay: Eurofins radioligand binding
Adenosine A3 = Adenosine A3 (Homo sapiens, UniProt P0DMS8); assay: Eurofins radioligand binding
[4] = Rat oral dose escalation PK study; assay type: in vivo; details: for AUC(0-t) / Cmax: Sprague-Dawley, plasma, rat, oral
Description: page 9: Brain plasma concentration ratio (Kp) was calculated by dividing brain concentration by plasma concentration for each animal. Unbound brain to unbound plasma concentration ratio (Kp,uu) is calculated using the following formula: Kp,uu = (Brain ng/g x brain fu)/(plasma ng/ml x plasma fu). Pharmacokinetic profiles in rats following oral single escalating doses Single escalating oral dosing in Sprague-Dawley rats was performed at Frontage Laboratories according to their non-GLP Standard Operating Procedure and IACUC protocols. […] At different times, arterial blood was collected from a femoral artery catheter, and compound concentration was determined in plasma by LC-MS/MS following their non-GLP protocol. PK parameters were determined using Phoenix WinNonlin software (version 6.3). In-vitro determination of blood-brain barrier penetration potential Blood-brain barrier penetration was determined using MDR1-MDCK cell monolayers by Absorption Systems, following their protocol. In short, compounds were incubated at […] final concentration on one side of the cell monolayer for 2 hours. Compounds concentration on either side of the monolayer was determined by LC-MS/MS and apparent permeability and efflux ratio were determined as described in Wang, Q. et al.1 Behavioral Manifestations of Seizure Activity To evaluate induction of behavioral manifestation of seizure activity, C57Bl/6 mice received administration of vehicle or 100 mg/kg M1 PAM 5. Compound was formulated in 30% Captisol (pH 7.0) at a concentration of 10 mg/mL and injected i.p. at 10 ml/kg (n = 4). Animals were monitored continuously and scored for behavioral manifestations of seizure activity at 5, 15, 30 min, and 1 h. Behavioral manifestations of seizures were scored using a modified Racine scoring system. Briefly, a score of 0 represents no behavior alterations; score 1, immobility, mouth and facial movements, or facial clonus; score 2, head nodding, tail extension; score 3, forelimb clonus, repetitive movements; score 4, rearing and tonic clonic seizure; and score 5, continuous rearing and falling, severe generalized tonic clonic seizure. Novel Object Recognition Task S9

Imidazoline I2, Central = assay: Eurofins radioligand binding; set-up: species or system Rat
Glutamate, Kainate = assay: Eurofins radioligand binding; set-up: species or system Rat
GABAB1A = GABAB1A (Homo sapiens, UniProt Q9UBS5); assay: Eurofins radioligand binding
CYP = CYP induction; assay type: in vitro ADME; details: in words
[5] = molecular target: Nicotinic Acetylcholine α3β4 (Homo sapiens, UniProt P30926+P32297); assay: Eurofins radioligand binding
Dopamine D4.2 = assay: Eurofins radioligand binding; set-up: species or system Human
Phorbol Ester = assay: Eurofins radioligand binding; set-up: species or system Mouse
[6] = tested on: Calcium Channel L-Type, Benzothiazepine; assay: Eurofins radioligand binding; set-up: species or system Rat
Serotonin (5-HT1A) = Serotonin (5-HT1A) (Homo sapiens, UniProt P08908); assay: Eurofins radioligand binding
Dopamine D3 = Dopamine D3 (Homo sapiens, UniProt P35462); assay: Eurofins radioligand binding
[7] = tested on: Purinergic P2Y, Non-Selective; assay: Eurofins radioligand binding; set-up: species or system Rat
Bradykinin B2 = Bradykinin B2 (Homo sapiens, UniProt P30411); assay: Eurofins radioligand binding
Cannabinoid CB1 = Cannabinoid CB1 (Homo sapiens, UniProt P21554); assay: Eurofins radioligand binding
Neuropeptide Y Y1 = Neuropeptide Y Y1 (Homo sapiens, UniProt P25929); assay: Eurofins radioligand binding
Neuropeptide Y Y2 = Neuropeptide Y Y2 (Homo sapiens, UniProt P49146); assay: Eurofins radioligand binding
[8] = tested on: Glutamate, NMDA, Phencyclidine; assay: Eurofins radioligand binding; set-up: species or system Rat
Muscarinic M2 = Muscarinic M2 (Homo sapiens, UniProt P08172); assay: Eurofins radioligand binding
Muscarinic M2, sequence (P08172 whole entry): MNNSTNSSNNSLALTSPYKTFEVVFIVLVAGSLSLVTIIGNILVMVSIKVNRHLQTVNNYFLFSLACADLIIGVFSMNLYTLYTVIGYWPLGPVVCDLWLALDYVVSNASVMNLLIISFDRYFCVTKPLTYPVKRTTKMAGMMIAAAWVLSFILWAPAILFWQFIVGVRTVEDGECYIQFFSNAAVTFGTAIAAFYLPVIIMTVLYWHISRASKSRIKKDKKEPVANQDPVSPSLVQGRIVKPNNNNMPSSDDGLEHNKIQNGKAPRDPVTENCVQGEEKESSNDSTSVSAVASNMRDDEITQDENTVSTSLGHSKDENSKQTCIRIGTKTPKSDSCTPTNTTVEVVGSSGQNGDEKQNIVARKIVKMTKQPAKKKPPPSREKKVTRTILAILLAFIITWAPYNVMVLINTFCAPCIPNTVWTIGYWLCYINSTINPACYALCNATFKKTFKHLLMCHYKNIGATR

Bradykinin B2, sequence (P30411 whole entry): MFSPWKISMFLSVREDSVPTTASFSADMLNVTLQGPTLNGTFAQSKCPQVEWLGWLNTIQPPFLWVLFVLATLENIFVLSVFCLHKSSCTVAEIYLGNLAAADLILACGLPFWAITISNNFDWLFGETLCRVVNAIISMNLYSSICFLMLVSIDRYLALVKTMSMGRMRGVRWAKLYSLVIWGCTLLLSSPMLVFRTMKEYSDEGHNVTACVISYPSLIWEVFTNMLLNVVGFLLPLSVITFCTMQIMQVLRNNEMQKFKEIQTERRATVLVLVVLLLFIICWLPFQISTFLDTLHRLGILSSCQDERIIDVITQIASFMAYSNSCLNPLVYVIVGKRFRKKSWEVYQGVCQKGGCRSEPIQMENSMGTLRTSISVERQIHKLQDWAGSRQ
Tachykinin NK1, sequence (P25103 whole entry): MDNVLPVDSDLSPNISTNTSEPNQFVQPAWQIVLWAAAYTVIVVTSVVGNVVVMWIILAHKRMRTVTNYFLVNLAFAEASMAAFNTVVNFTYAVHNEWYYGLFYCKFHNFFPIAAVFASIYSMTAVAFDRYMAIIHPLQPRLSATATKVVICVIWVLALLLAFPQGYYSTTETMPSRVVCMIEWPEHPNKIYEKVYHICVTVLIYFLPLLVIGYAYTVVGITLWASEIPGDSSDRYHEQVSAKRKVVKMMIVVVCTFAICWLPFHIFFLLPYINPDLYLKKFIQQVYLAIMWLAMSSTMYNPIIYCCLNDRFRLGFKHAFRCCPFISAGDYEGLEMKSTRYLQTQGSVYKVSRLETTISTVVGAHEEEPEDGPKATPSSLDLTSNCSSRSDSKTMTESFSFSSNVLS
Bradykinin B1, sequence (P46663 whole entry): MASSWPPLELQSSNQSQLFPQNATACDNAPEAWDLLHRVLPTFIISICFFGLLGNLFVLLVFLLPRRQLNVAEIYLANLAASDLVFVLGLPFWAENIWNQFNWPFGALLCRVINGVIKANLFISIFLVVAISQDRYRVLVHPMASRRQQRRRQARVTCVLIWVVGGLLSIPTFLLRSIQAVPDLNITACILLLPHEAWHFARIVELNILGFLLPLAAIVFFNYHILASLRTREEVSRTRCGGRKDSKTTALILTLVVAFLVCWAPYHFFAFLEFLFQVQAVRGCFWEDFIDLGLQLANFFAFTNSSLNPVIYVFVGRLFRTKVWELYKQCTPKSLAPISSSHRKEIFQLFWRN
Histamine H3, sequence (Q9Y5N1 whole entry): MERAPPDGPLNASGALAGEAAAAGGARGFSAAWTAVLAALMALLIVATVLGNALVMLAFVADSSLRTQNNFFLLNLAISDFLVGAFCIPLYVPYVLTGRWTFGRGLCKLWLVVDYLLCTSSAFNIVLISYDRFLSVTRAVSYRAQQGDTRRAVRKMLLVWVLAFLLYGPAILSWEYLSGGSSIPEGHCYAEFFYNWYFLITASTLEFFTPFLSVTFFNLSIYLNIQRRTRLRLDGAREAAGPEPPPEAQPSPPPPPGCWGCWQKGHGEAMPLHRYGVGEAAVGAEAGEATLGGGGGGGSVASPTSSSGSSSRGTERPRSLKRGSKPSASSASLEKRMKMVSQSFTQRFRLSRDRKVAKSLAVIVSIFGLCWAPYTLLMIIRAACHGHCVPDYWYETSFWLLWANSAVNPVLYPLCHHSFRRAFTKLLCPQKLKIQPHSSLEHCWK
Leukotriene, Cysteinyl CysLT1, sequence (Q9Y271 whole entry): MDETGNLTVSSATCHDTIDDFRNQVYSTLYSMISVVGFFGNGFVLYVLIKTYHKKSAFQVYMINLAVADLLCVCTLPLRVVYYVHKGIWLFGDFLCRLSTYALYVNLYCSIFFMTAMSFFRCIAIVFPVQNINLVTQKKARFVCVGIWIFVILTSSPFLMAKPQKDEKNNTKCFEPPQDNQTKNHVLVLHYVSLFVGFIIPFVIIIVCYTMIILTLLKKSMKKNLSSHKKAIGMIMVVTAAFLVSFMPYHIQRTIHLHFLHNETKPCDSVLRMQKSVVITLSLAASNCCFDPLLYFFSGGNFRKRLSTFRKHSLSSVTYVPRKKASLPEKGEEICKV
Adenosine A3, sequence (P0DMS8 whole entry): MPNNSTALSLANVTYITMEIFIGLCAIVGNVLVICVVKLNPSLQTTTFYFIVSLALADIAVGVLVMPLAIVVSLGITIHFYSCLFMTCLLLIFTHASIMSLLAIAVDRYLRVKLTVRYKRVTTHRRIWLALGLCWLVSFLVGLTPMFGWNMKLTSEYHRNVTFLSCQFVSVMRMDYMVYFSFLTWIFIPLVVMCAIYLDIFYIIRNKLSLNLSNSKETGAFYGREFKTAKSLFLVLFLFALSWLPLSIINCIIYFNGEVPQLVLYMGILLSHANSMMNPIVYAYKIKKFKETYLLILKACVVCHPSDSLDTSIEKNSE
Nicotinic Acetylcholine α3β4, sequence (P32297 32-505): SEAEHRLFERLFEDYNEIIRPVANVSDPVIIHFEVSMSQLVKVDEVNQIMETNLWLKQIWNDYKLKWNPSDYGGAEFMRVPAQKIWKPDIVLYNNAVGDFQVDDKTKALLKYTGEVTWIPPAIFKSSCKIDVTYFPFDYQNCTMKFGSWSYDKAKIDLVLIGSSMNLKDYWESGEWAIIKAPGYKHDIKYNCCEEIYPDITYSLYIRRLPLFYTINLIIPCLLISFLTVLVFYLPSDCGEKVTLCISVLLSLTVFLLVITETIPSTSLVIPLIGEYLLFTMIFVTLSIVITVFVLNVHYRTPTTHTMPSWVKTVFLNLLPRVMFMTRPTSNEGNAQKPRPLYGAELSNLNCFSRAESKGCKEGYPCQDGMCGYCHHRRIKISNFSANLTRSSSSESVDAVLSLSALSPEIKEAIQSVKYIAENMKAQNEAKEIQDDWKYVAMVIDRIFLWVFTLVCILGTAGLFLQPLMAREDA
Nicotinic Acetylcholine α3β4, sequence (P30926 22-498): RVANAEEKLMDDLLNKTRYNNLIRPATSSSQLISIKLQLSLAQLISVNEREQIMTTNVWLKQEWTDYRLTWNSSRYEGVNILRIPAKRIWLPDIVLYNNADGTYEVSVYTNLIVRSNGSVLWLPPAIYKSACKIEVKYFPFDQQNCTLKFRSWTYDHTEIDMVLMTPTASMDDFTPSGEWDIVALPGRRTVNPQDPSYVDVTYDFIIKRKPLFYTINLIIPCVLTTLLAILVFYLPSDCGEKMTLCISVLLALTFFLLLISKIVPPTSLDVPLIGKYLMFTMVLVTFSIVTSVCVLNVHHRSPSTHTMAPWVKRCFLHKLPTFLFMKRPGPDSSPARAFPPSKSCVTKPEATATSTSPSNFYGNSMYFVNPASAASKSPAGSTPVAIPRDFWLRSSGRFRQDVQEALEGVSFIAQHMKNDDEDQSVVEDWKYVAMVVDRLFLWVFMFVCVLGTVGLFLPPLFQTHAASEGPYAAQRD
Cannabinoid CB1, sequence (P21554 whole entry): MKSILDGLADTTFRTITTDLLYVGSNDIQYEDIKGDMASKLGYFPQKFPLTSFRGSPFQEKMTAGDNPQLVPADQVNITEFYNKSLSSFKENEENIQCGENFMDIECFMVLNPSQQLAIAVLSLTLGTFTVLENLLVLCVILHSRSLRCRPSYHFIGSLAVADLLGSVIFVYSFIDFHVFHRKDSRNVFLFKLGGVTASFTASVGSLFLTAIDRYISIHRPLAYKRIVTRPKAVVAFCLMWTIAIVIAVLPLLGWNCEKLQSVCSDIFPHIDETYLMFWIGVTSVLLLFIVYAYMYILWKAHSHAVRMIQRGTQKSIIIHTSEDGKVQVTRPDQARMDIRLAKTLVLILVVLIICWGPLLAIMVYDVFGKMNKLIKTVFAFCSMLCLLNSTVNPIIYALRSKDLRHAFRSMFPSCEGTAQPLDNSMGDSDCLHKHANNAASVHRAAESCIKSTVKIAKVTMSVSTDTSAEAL
Neuropeptide Y Y1, sequence (P25929 whole entry): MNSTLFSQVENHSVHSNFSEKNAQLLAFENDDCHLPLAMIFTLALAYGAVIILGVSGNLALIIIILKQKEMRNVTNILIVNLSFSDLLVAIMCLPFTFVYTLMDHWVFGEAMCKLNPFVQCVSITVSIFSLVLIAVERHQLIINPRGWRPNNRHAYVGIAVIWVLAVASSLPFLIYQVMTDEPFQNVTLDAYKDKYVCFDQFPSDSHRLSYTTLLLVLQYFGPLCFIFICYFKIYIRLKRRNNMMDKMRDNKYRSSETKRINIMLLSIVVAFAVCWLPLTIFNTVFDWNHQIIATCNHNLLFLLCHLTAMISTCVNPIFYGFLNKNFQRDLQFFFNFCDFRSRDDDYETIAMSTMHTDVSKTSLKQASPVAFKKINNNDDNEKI
Dopamine D3, sequence (P35462 whole entry): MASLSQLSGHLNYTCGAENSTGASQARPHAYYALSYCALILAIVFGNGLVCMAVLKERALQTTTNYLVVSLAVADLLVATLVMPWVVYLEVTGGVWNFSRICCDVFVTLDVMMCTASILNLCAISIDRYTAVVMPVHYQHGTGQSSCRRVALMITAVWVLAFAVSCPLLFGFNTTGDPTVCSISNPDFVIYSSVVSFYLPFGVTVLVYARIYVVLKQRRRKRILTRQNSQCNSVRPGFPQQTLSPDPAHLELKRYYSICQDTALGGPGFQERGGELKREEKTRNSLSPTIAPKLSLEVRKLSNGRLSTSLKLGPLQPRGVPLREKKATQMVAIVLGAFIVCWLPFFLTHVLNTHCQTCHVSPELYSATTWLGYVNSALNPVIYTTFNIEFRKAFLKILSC

## [2H]C1([2H])c2ncccc2C(=O)N1Cc1c(F)cc(-c2cccc3nn(C([2H])([2H])[2H])cc23)cc1F [compound 5]
Bradykinin B1
  inhibition at 10 µM: 13%
[1]
  bacterial mutagenicity mini-AMES result: negative
CYP 2D6
  contribution of CYP 2D6 to metabolism: 1.6%
Histamine H3
  inhibition at 10 µM: 5%
[2]
  inhibition at 10 µM: -9%
Transporter, GABA
  inhibition at 10 µM: 31%
Melatonin MT1
  inhibition at 10 µM: 5%
[3]
  change in fEPSPs / long-term depression: no significant changes; also recorded: did not induce a significant long-term depression
Tachykinin NK1
  inhibition at 10 µM: 4%
Adenosine A3
  inhibition at 10 µM: 12%
[4]; 3 mg/kg
  AUC(0-t): 8390 ng·h/mL
  Cmax: 1250 ng/mL
[4]; 10 mg/kg
  AUC(0-t): 23900 ng·h/mL
  Cmax: 3380 ng/mL
[4]; 30 mg/kg
  AUC(0-t): 55600 ng·h/mL
  Cmax: 6020 ng/mL
[4]; 100 mg/kg
  AUC(0-t): 87800 ng·h/mL
  Cmax: 7850 ng/mL
[4]; rat oral dose escalation 3-100 mg/kg
  cholinergic signs or adverse events: no cholinergic signs or adverse events were noted
Imidazoline I2, Central
  % Inhibition at 10 µM: 59%
Glutamate, Kainate
  % Inhibition at 10 µM: 13%
GABAB1A
  inhibition at 10 µM: -5%
CYP
  CYP induction liability: no time-dependent CYP inhibition or CYP induction liabilities
[5]
  inhibition at 10 µM: -7%
Dopamine D4.2
  % Inhibition at 10 µM: 13%
Phorbol Ester
  % Inhibition at 10 µM: 5%
[6]
  % Inhibition at 10 µM: 15%
Serotonin (5-HT1A)
  inhibition at 10 µM: -5%
Dopamine D3
  inhibition at 10 µM: -1%
[7]
  % Inhibition at 10 µM: 9%
Bradykinin B2
  inhibition at 10 µM: 2%
Cannabinoid CB1
  inhibition at 10 µM: -3%
Neuropeptide Y Y1
  inhibition at 10 µM: -13%
Neuropeptide Y Y2
  inhibition at 10 µM: -3%
[8]
  % Inhibition at 10 µM: -1%
Muscarinic M2
  inhibition at 10 µM: 5%
